A melting point compilation (Tetko et al.)

Structure (SMILES) | melting point
Nc1c(-c2ccccc2)nc2ccccn12 | 152 to 155 °C
N#Cc1ccc(I)cc1C#N | 140 to 142 °C
CC(C)n1cc(S(=O)(=O)Cl)cn1 | 53 to 55 °C
OC1CC(c2ccc(Br)cc2)C1 (configuration not stated) | 59 to 61 °C
CC(C)c1n[nH]c(-c2ccccc2N)n1 | 125 to 127 °C
Oc1ccc2cn[nH]c2c1 | 189 to 191 °C
Cc1ccc(O)c(S(=O)(=O)N2CCNCC2)c1 | 187 to 189 °C
N#Cc1ccc(S(=O)(=O)N2CCCC2)cc1 | 103 to 105 °C
COC(=O)c1ccc(COc2ccccc2C=O)cc1 | 90 to 92 °C
CCCCCCC(NC)C(=O)O (configuration not stated) | 259 to 261 °C
Cc1cc(OS(C)(=O)=O)nc2c1cnn2C(C)C | 78 to 80 °C
CC(=O)N1CCCC(C(N)=O)C1 (configuration not stated) | 146 to 148 °C
Cc1cc(C=O)c(C)n1-c1ccc(F)c(F)c1F | 89 to 91 °C
NC(=S)N1CCS(=O)(=O)CC1 | 233 to 235 °C
O=C(O)c1cc2c(F)cc(F)cc2[nH]1 | 252 to 254 °C
COc1cc(N)ccc1S(=O)(=O)N1CCCC1 | 145 to 147 °C
O=C(O)C1CCCN(C(=O)c2c[nH]c3ccccc23)C1 (configuration not stated) | 231 to 233 °C
O=c1[nH]ncc2cccnc12 | 309 to 311 °C
NCC1CC(O)CN1Cc1ccccc1 (configuration not stated) | 54 to 56 °C
Cc1ncc(C(=O)O)c(C(C)C)n1 | 168 to 170 °C
COC(=O)C1(N)CCS(=O)(=O)CC1 | 124 to 126 °C
CC(C)(C)c1ccc(C(O)CN)cc1 (configuration not stated) | 125 to 127 °C
Cc1n[nH]c(C)c1S(=O)(=O)N1CCOCC1 | 82 to 83 °C
Clc1csc(Cl)n1 | 42 to 46 °C

Structure (SMILES) | melting point
N#Cc1ccccc1Oc1cnccn1 | 73 to 75 °C
CC(C)NC(=O)C(C)Cl (configuration not stated) | 89 to 91 °C
CC(=O)N1CCN(CC(N)=NO)CC1 | 199 to 201 °C
Cc1cc(NN)nc(-c2ccccn2)n1 | 175 to 177 °C
Cc1ccc(N2C(=O)C=CC2=O)cc1 | 151 to 153 °C
O=C(c1ccccc1)c1ccc(CBr)cc1 | 109 to 112 °C
CC(C)(C)C(=O)NC1CCCNC1 (configuration not stated) | 99 to 101 °C
Nc1nc2cc(Cl)ccc2s1 | 197 to 199 °C
COc1ccccc1-c1nnc(S)n1N | 210 to 220 °C
COC(=O)COc1c(C)cc(C(=O)O)cc1C | 173 to 175 °C
NCC(O)COc1ccc(I)cc1 (configuration not stated) | 129 to 131 °C
Nc1nccc(-c2ccccc2)n1 | 162 to 164 °C
CC(C)n1nnnc1-c1ccc(N)cc1F | 118 to 120 °C
CCCC1CCc2[nH]c(=O)sc2C1 (configuration not stated) | 119 to 121 °C
CC(C)(C)c1cnc(S)s1 | 115 to 117 °C
Nc1nnc2ccc(Cl)nn12 | 274 to 276 °C
O=C(c1cccnc1Cl)N1CCCC1 | 77 to 79 °C
O=Cc1cnn(-c2ccccc2)n1 | 66 to 68 °C
N#CCC(=O)NCC1CCCO1 (configuration not stated) | 90 to 94 °C
CC(C)CCOc1ccc(C2(C)NC(=O)NC2=O)cc1 (configuration not stated) | 110 to 112 °C
N#Cc1ccc(OCC2CO2)cc1 (configuration not stated) | 64 to 66 °C
Cn1c(C2CC2)nc2c1CCNC2 | 169 to 171 °C
Nc1nc2cc3c(cc2s1)OC(F)(F)O3 | 191 to 193 °C
Cc1cccc(Nc2nnc(S)s2)c1C | 195 to 197 °C

Structure (SMILES) | melting point
N#CCCOc1ccccc1 | 58 to 61 °C
CN(C)C(=O)c1ccc2c(c1)CCN2 | 156 to 158 °C
Cc1nccn1-c1ccc(Cl)nn1 | 122 to 124 °C
COc1cc(C)c(CSCC(=O)O)cc1OC | 63 to 65 °C
COc1ccc(C)cc1/C=C/C(=O)O | 141 to 143 °C
O=S1(=O)Nc2cccc3cccc1c23 | 175 to 177 °C
CCOc1cc(N)ccc1OC | 77 to 79 °C
CC(C)Oc1cc(Br)cc(C(=O)O)c1 | 126 to 128 °C
N#CCCN1C(=O)c2ccccc2C1=O | 153 to 155 °C
Nc1ccnc(Cc2ccccc2)n1 | 143 to 145 °C
NNc1ncnc2sccc12 | 211 to 213 °C
C#CCN1C(=O)C(=O)c2cc(Br)ccc21 | 164 to 166 °C
O=C(O)c1ccccc1-c1ncc(-c2ccccc2F)o1 | 184 to 186 °C
CNC(=O)CC1CCNCC1 | 105 to 107 °C
O=C(O)C(=O)Cc1ccc(Cl)cc1 | 192 to 194 °C
O=[N+]([O-])c1ccc(NC2CCCC2)cc1 | 86 to 88 °C
Clc1ncnc2c1CCCC2 | 79 to 81 °C
N#CCC(=O)NC1CCCCC1 | 132 to 134 °C
CC(C)CC1NC(=O)NC1=O (configuration not stated) | 215 to 217 °C
O=c1[nH]nc2ccc(Cl)nn12 | 269 to 271 °C
O=Cc1cccnc1Cl | 50 to 54 °C
COc1ccc(CC#N)cn1 | 49 to 51 °C
Cc1csc(NCC(F)(F)F)n1 | 142 to 144 °C
O=[N+]([O-])c1cnc(O)c(Cl)c1 | 198 to 200 °C

Structure (SMILES) | melting point
O=C(O)C1CCCN1C(=O)C1CCCCC1 (configuration not stated) | 135 to 137 °C
Cc1ccc(-c2ccc(C=O)s2)cc1 | 87 to 89 °C
Cn1c(CO)nc2ccccc21 | 144 to 146 °C
CN(C)c1ccc(C=O)s1 | 65 to 67 °C
COc1ccc(C#N)c(N)c1 | 91 to 93 °C
Nc1cccc(-c2nnnn2C2CC2)c1 | 137 to 139 °C
COc1cc(C#N)ccc1OC(F)F | 47 to 51 °C
Cc1cc(N)nc(C(C)C)n1 | 196 to 198 °C
Nc1nc2ccc(SC(F)F)cc2s1 | 105 to 107 °C
COc1cc([N+](=O)[O-])ccc1I | 127 to 129 °C
NNC(=O)C1COCCO1 (configuration not stated) | 106 to 108 °C
Nc1cncc(Cl)c1Cl | 97 to 99 °C
Cc1cc(C#N)ccc1CO | 66 to 68 °C
Cc1cc(C(=O)O)sc1C=O | 204 to 206 °C
CCOC(=O)c1cc2ccc(Br)cc2[nH]1 | 187 to 189 °C
Nc1ccc(Sc2ccncc2)cc1 | 169 to 171 °C
CN(C)S(=O)(=O)c1ccc(N2CCOCC2)c(N)c1 | 174 to 176 °C
c1ccc(-c2cc[nH]c2)nc1 | 126 to 128 °C
O=C1CCOc2c(F)cc(F)cc21 | 135 to 137 °C
CCOC(=O)c1ncn(-c2ccccc2)n1 | 49 to 51 °C
Cc1cc(Br)cc2cc(C(=O)C(C)C)oc12 | 69 to 71 °C

The remaining lines, values ahead:

melting point | Structure (SMILES)
152 to 155 °C | O=C(O)CCCNS(=O)(=O)c1cccc(C(F)(F)F)c1
132 to 134 °C | O=C(O)c1cc([N+](=O)[O-])cc(F)c1F
204 to 206 °C | O=C(O)c1ccc(S(=O)(=O)Cl)cc1Br
96 to 98 °C | O=C1CCCCC1c1ccc(C(F)(F)F)cc1 (configuration not stated)
154 to 156 °C | O=C(Nc1cccc(O)c1)c1cccs1
76 to 80 °C | O=C(Nc1ccc(F)cc1)OCC(F)(F)F
138 to 140 °C | O=C(O)c1ccc(F)c(S(=O)(=O)Cl)c1
111 to 113 °C | CC(=O)c1cccc(NC(=O)C(C)Cl)c1 (configuration not stated)
129 to 131 °C | O=C(O)CSc1cc(Cl)ccc1Cl
180 to 188 °C | O=C(O)c1ccc(-c2nc3ccccc3s2)o1
193 to 195 °C | O=C(O)c1nn(-c2cccc(Br)c2)c2c1CCCC2
347 to 349 °C | NC(=O)c1ccc(C(=O)O)cn1
127 to 129 °C | Cc1cc(S(=O)(=O)Cl)ccc1OCC(=O)O
219 to 221 °C | COc1ccc(C=CC(=O)O)cc1S(=O)(=O)N1CCCCC1
120 to 122 °C | Cc1ccc(NC(=O)C(Cl)c2ccccc2)cc1Cl (configuration not stated)
139 to 141 °C | O=C(O)CCC(=O)c1csc2ccccc12
194 to 196 °C | COc1ccc(-c2cc(C(=O)O)no2)c(F)c1
239 to 241 °C | NNC(=O)c1n[nH]c(=O)c2ccccc12
96 to 98 °C | CC(C)c1ccc(N)c(C(=O)O)c1
144 to 146 °C | CC(=O)Nc1cccc2c1CCCN2
54 to 56 °C | O=S(=O)(NC1CC1)c1ccc(F)cc1
97 to 99 °C | N#Cc1cc(Cl)ccc1S(=O)(=O)Cl
101 to 103 °C | O=C(O)Cc1cc(Cl)ccc1Br
134 to 136 °C | NNC(=O)CSc1ccccc1O
109 to 111 °C | COc1ccccc1SCC(=O)NN
66 to 68 °C | CCOC(=O)C(=O)CC(=O)c1cccnc1
74 to 76 °C | COC(=O)c1cc(S(=O)(=O)N2CCOCC2)ccc1Cl

melting point | Structure (SMILES)
83 to 85 °C | CNS(=O)(=O)c1ccc(C)c(N)c1
96 to 98 °C | Cc1c(N)cc(C(=O)NC(C)c2ccccc2)cc1F (configuration not stated)
110 to 112 °C | Nc1ccc(CC(=O)Nc2ccccc2F)cc1
153 to 155 °C | Cc1ccc(C(=O)O)c(Cl)c1C
149 to 151 °C | CCN(CC)S(=O)(=O)c1ccc(N2CCOCC2)c(C(=O)O)c1
85 to 87 °C | O=S1(=O)CCCN1c1cccc(Cl)c1
154 to 156 °C | NS(=O)(=O)c1cc(C(F)(F)F)ccc1Cl
140 to 142 °C | O=C(O)CSc1nnc(-c2ccc(F)cc2)o1
89 to 91 °C | O=C(O)C1(Cc2ccccc2)CC2CCC1C2 (configuration not stated)
206 to 208 °C | CC(C)(C)c1ccc(C=CC(=O)O)cc1
63 to 67 °C | CCCC(C(=O)O)c1ccccc1 (configuration not stated)
179 to 181 °C | O=C(O)c1ccc(NC(=O)N2CCCCC2)c(F)c1
158 to 160 °C | O=C(O)COc1ccc2ccccc2c1Br
101 to 103 °C | CC(=O)CC(=O)Nc1ccc(F)cc1
53 to 55 °C | Cc1c(S(=O)(=O)Cl)cnn1-c1ccccn1
283 to 285 °C | COc1ccc(C(=O)O)cc1S(N)(=O)=O
167 to 169 °C | CC(C)(C(=O)O)C(O)c1ccc(OCc2ccccc2)cc1 (configuration not stated)
124 to 126 °C | O=C(O)CCS(=O)(=O)c1ccc2c(c1)CCC2
217 to 219 °C | Cc1ccc(C)c(S(=O)(=O)Nc2cccc(C(=O)O)c2)c1
297 to 299 °C | CC(N)(C(=O)O)c1ccc(Cl)cc1 (configuration not stated)
250 to 252 °C | O=S(=O)(Nc1nc2ccccc2nc1Cl)c1cc(F)ccc1F
155 to 159 °C | Cn1c(SCC(=O)O)nc2ccccc21
208 to 210 °C | Cn1cc(NC(=O)OCC(F)(F)F)ccc1=O
207 to 209 °C | NC(=O)c1cc(C(F)(F)F)ccc1N1CCCC1
113 to 115 °C | CS(=O)(=O)NCC(=O)c1ccccc1
182 to 184 °C | CN1C(=O)CCC(C(=O)O)C1c1cccc(Cl)c1 (configuration not stated)
144 to 146 °C | O=C(O)C1(c2cccc(C(F)(F)F)c2)CCCCC1
